These results are taken from patent publication US8871934B2, “Fluorene compound and pharmaceutical use thereof” (Japan Tobacco Inc., priority 2008, dated 2014).

This experiment has as its target human PDHK2 (hPDHK2) (Homo sapiens (Human), UniProt Q15119). Briefly: Inhibitory action of PDHK activity in vitro (kinase reaction, residual PDH activity measured). Format: biochemical.
[1] abbreviates: PDHK inhibitory activity, class symbol of IC50.
Setting [2] is: read-out: PDHK inhibitory activity IC50.

As usually defined, the IC50 is the concentration that gives 50% inhibition.

Like-named read-outs stand apart in the source and are kept apart here.

Turning to `Cn1cc(-c2cc(OCCCCO)cc3c2-c2ccccc2C3(O)C(F)(F)F)cn1` (stereo not shown) [compound 426], the IC50 is under 100 nM under setting [1] and 24 nM under setting [2].
Consider `CN(C)C(=O)CCCOc1cc(-c2cnn(C)c2)c2c(c1)C(O)(C(F)(F)F)c1ccccc1-2` (stereo not shown) [compound 427], for which the IC50 by setting is: under setting [1], under 100 nM; under setting [2], 20 nM.
As for `OCCCCOc1cc(-c2cncnc2)c2c(c1)C(O)(C(F)(F)F)c1ccccc1-2` (stereo not shown) [compound 428], the IC50 under setting [1] is under 100 nM and the IC50 under setting [2] turned out to be 25 nM.
Consider `CN(C)C(=O)CCCOc1cc(-c2cncnc2)c2c(c1)C(O)(C(F)(F)F)c1ccccc1-2` (stereo not shown) [compound 429], for which the IC50 reads like this: under setting [1], under 100 nM; under setting [2], 19 nM.
Take `O=C1CCCN1CCOc1cnc2c(c1)C(O)(C(F)(F)F)c1ccccc1-2` (stereo not shown) [compound 430, 1-[2-(5-hydroxy-5-trifluoromethyl-5H-indeno[1,2-b]pyridin-3-yloxy)-ethyl]-pyrrolidin-2-one]: the IC50 reads like this: under setting [1], under 100 nM; under setting [2], 64 nM.
`COCOCCN1C(=O)CCC1COc1ccc2c(c1)C(O)(C(F)(F)F)c1ccccc1-2` (stereo not shown) [compound 431]: the IC50 by setting is: under setting [1], 100 to 1000 nM; under setting [2], 250 nM.
The corresponding values for `O=C1CCC(COc2ccc3c(c2)C(O)(C(F)(F)F)c2ccccc2-3)N1CCO` (stereo not shown) [compound 432] are 100 to 1000 nM and 247 nM.
Turning to `Cn1cc(-c2cc(OCC(=O)O)cc3c2-c2ccccc2C3(O)C(F)(F)F)cn1` (stereo not shown) [compound 433], the IC50 runs as follows: under setting [1], 100 to 1000 nM; under setting [2], 388 nM.
For `NC(=O)COc1cnc2c(c1)C(O)(C(F)(F)F)c1ccccc1-2` (stereo not shown) [compound 434], the concentration for half-maximal inhibition (IC50) was 100 to 1000 nM under setting [1] and 561 nM under setting [2].
For the molecule `CC(=O)NCCOc1cc(-c2cnn(C)c2)c2c(c1)C(O)(C(F)(F)F)c1ccccc1-2` (stereo not shown) [compound 435], the half-inhibitory concentration (IC50) reads like this: under setting [1], under 100 nM; under setting [2], 39 nM.
Take `OCCCn1cc(-c2cccc3c2-c2ccccc2C3(O)C(F)(F)F)cn1` (stereo not shown) [compound 436]: the IC50 by setting is: under setting [1], under 100 nM; under setting [2], 65 nM.
As to `O=C(COc1cc(Br)c2c(c1)C(O)(C(F)(F)F)c1ccccc1-2)N1CCC1` (stereo not shown) [compound 437], the 50% inhibitory concentration (IC50) reads like this: under setting [1], under 100 nM; under setting [2], 60 nM.
With `CNC(=O)COc1cc(Br)c2c(c1)C(O)(C(F)(F)F)c1ccccc1-2` (stereo not shown) [compound 438], the IC50 by setting is: under setting [1], 100 to 1000 nM; under setting [2], 112 nM.
In the case of `Cn1cc(-c2cc(OCC(=O)N3CC(CO)C3)cc3c2-c2ccccc2C3(O)C(F)(F)F)cn1` (stereo not shown) [compound 439], the IC50 is under 100 nM under setting [1] and 34 nM under setting [2].
Consider `Cn1cc(-c2cc(OCC(=O)N3CCC(CO)CC3)cc3c2-c2ccccc2C3(O)C(F)(F)F)cn1` (stereo not shown) [compound 440], for which the IC50 was under 100 nM under setting [1] and 32 nM under setting [2].
Take `Cn1cc(-c2cc(OCC(=O)N3CCC3)cc3c2-c2ccccc2C3(O)C(F)(F)F)cn1` (stereo not shown) [compound 441]: the IC50 is, setting by setting: under setting [1], under 100 nM; under setting [2], 36 nM.
As to `CNC(=O)COc1cc(-c2cnn(C)c2)c2c(c1)C(O)(C(F)(F)F)c1ccccc1-2` (stereo not shown) [compound 442], the IC50 reads like this: under setting [1], under 100 nM; under setting [2], 40 nM.
The corresponding values for `CC(=O)N(CCOc1ccc2c(c1)C(O)(C(F)(F)F)c1ccccc1-2)CCC(=O)O` (stereo not shown) [compound 443] are over 1000 nM and 1150 nM.
On the same counts, the results for `CN(CCOc1ccc2c(c1)C(O)(C(F)(F)F)c1ccccc1-2)CC(=O)O` (stereo not shown) [compound 444] are over 1000 nM and 3930 nM.
On to `O=C1CC[C@H](COc2ccc3c(c2)C(O)(C(F)(F)F)c2ccccc2-3)N1` (stereo partly shown) [compound 445], for which the IC50 under setting [1] is 100 to 1000 nM and the IC50 under setting [2] was found to be 605 nM.
`O=C1CC[C@@H](COc2ccc3c(c2)C(O)(C(F)(F)F)c2ccccc2-3)N1` (stereo partly shown) [compound 446]: the IC50 by setting is: under setting [1], 100 to 1000 nM; under setting [2], 565 nM.
The corresponding values for `CN1C(=O)CC[C@@H]1COc1ccc2c(c1)C(O)(C(F)(F)F)c1ccccc1-2` (stereo partly shown) [compound 447] are 100 to 1000 nM and 202 nM.
Turning to `CN1C(=O)CC[C@H]1COc1ccc2c(c1)C(O)(C(F)(F)F)c1ccccc1-2` (stereo partly shown) [compound 448], the IC50 is, setting by setting: under setting [1], 100 to 1000 nM; under setting [2], 381 nM.
Consider `Cn1cc(-c2cc(OCCCC(=O)O)cc3c2-c2ccccc2C3(O)C(F)(F)F)cn1` (stereo not shown) [compound 449], for which the IC50 by setting is: under setting [1], under 100 nM; under setting [2], 47 nM.
For the molecule `O=C1CCC(CO)N1CCOc1ccc2c(c1)C(O)(C(F)(F)F)c1ccccc1-2` (stereo not shown) [compound 450], the IC50 by setting is: under setting [1], 100 to 1000 nM; under setting [2], 442 nM.
Take `Cn1cc(-c2cc(OCCCO)cc3c2-c2ccccc2C3(O)C(F)(F)F)cn1` (stereo not shown) [compound 453]: the IC50 under setting [1] is under 100 nM and the IC50 under setting [2] is 28 nM.
The corresponding values for `Cn1cc(-c2cc(OCCC(=O)O)cc3c2-c2ccccc2C3(O)C(F)(F)F)cn1` (stereo not shown) [compound 454] are under 100 nM and 64 nM.
With `CN(C)C(=O)CCOc1cc(-c2cnn(C)c2)c2c(c1)C(O)(C(F)(F)F)c1ccccc1-2` (stereo not shown) [compound 455], the IC50 reads like this: under setting [1], under 100 nM; under setting [2], 26 nM.
On the same counts, the results for `Cn1cc(-c2cc(OCCO)cc3c2-c2ccccc2C3(O)C(F)(F)F)cn1` (stereo not shown) [compound 456] are under 100 nM and 45 nM.
For `CN(C)C(=O)COc1cc(-c2cnn(C)c2)c2c(c1)C(O)(C(F)(F)F)c1ccccc1-2` (stereo not shown) [compound 457], the IC50 is, setting by setting: under setting [1], under 100 nM; under setting [2], 30 nM.
On the same counts, the results for `COc1cc(-c2cnn(CCO)c2)c2c(c1)C(O)(C(F)(F)F)c1ccccc1-2` (stereo not shown) [compound 458] are under 100 nM and 39 nM.
`O=C1OCCN1CCOc1ccc2c(c1)C(O)(C(F)(F)F)c1ccccc1-2` (stereo not shown) [compound 459]: the IC50 was 100 to 1000 nM under setting [1] and 185 nM under setting [2].
With `OCCn1cc(-c2cc(Cl)cc3c2-c2ccccc2C3(O)C(F)(F)F)cn1` (stereo not shown) [compound 460], the IC50 under setting [1] was under 100 nM and the IC50 under setting [2] worked out at 30 nM.
For the molecule `O=C(c1cc(-c2cnn(CCO)c2)c2c(c1)C(O)(C(F)(F)F)c1ccccc1-2)N1CCC1` (stereo not shown) [compound 461], the IC50 was under 100 nM under setting [1] and 30 nM under setting [2].
For `CN(CC(=O)O)C(=O)COc1ccc2c(c1)C(O)(C(F)(F)F)c1ccccc1-2` (stereo not shown) [compound 462], the 50% inhibitory concentration (IC50) by setting is: under setting [1], over 1000 nM; under setting [2], 5980 nM.
In the case of `COc1cc(-c2cnn(C)c2)c2c(c1)C(O)(C(F)(F)F)c1ccccc1-2` (stereo not shown) [compound 463], the IC50 is under 100 nM under setting [1] and 47 nM under setting [2].
In the case of `Cn1cc(-c2cc(OCCNC(=O)CCC(=O)C(F)(F)F)cc3c2-c2ccccc2C3(O)C(F)(F)F)cn1` (stereo not shown) [compound 464], the half-maximal inhibitory concentration (IC50) reads like this: under setting [1], under 100 nM; under setting [2], 42 nM.
On the same counts, the results for `CC(C)n1cc(-c2cccc3c2-c2ccccc2C3(O)C(F)(F)F)cn1` (stereo not shown) [compound 465] are under 100 nM and 61 nM.
As to `OC1(C(F)(F)F)c2ccccc2-c2c(-c3cnn(Cc4ccccc4)c3)cccc21` (stereo not shown) [compound 466], the IC50 under setting [1] was under 100 nM and the concentration for half-maximal inhibition (IC50) under setting [2] stood at 55 nM.
`O=S1(=O)CCCN1CCOc1ccc2c(c1)C(O)(C(F)(F)F)c1ccccc1-2` (stereo not shown) [compound 468]: the IC50 was 100 to 1000 nM under setting [1] and 327 nM under setting [2].
In the case of `O=C1NCCN1CCOc1ccc2c(c1)C(O)(C(F)(F)F)c1ccccc1-2` (stereo not shown) [compound 469], the IC50 by setting is: under setting [1], 100 to 1000 nM; under setting [2], 193 nM.
In the case of `O=C1OCCCN1CCOc1ccc2c(c1)C(O)(C(F)(F)F)c1ccccc1-2` (stereo not shown) [compound 470], the IC50 runs as follows: under setting [1], 100 to 1000 nM; under setting [2], 168 nM.
Take `CN(CCOc1cc(-c2cnn(C)c2)c2c(c1)C(O)(C(F)(F)F)c1ccccc1-2)C(=O)C(C)(C)C` (stereo not shown) [compound 471]: the IC50 is under 100 nM under setting [1] and 26 nM under setting [2].
Turning to `COC(=O)c1cc(Br)c2c(c1)C(O)(C(F)(F)F)c1ccccc1-2` (stereo not shown) [compound 472], the IC50 is 100 to 1000 nM under setting [1] and 184 nM under setting [2].
Turning to `O=C(c1cc(-c2cnn(CCO)c2)c2c(c1)C(O)(C(F)(F)F)c1ccccc1-2)N1CCCC1` (stereo not shown) [compound 476], the IC50 under setting [1] is under 100 nM and the IC50 under setting [2] amounted to 53 nM.
As to `O=C(O)CCCOc1cc(Cl)c2c(c1)C(O)(C(F)(F)F)c1ccccc1-2` (stereo not shown) [compound 478], the 50% inhibitory concentration (IC50) under setting [1] lay within 100 to 1000 nM and the 50% inhibitory concentration (IC50) under setting [2] was 433 nM.
`COC(=O)COc1cc(Cl)c2c(c1)C(O)(C(F)(F)F)c1ccccc1-2` (stereo not shown) [compound 480]: the IC50 under setting [1] was in the range of 100 to 1000 nM and the IC50 under setting [2] amounted to 553 nM.
On to `O=C(O)CCCOc1cc(-c2cnn(CCO)c2)c2c(c1)C(O)(C(F)(F)F)c1ccccc1-2` (stereo not shown) [compound 482], for which the IC50 is, setting by setting: under setting [1], under 100 nM; under setting [2], 40 nM.
`O=C(O)Cn1cc(-c2cccc3c2-c2ccccc2C3(O)C(F)(F)F)cn1` (stereo not shown) [compound 483]: the half-maximal inhibitory concentration (IC50) is, setting by setting: under setting [1], 100 to 1000 nM; under setting [2], 542 nM.
As for `O=C1CCCN1CCOc1cc(-c2cnn(CCO)c2)c2c(c1)C(O)(C(F)(F)F)c1ccccc1-2` (stereo not shown) [compound 484], the IC50 reads like this: under setting [1], under 100 nM; under setting [2], 24 nM.
As to `O=C(O)CCn1cc(-c2cccc3c2-c2ccccc2C3(O)C(F)(F)F)cn1` (stereo not shown) [compound 485], the IC50 is, setting by setting: under setting [1], 100 to 1000 nM; under setting [2], 117 nM.
`NC(=O)CCn1cc(-c2cccc3c2-c2ccccc2C3(O)C(F)(F)F)cn1` (stereo not shown) [compound 486]: the IC50 was under 100 nM under setting [1] and 55 nM under setting [2].
Turning to `CNC(=O)CCn1cc(-c2cccc3c2-c2ccccc2C3(O)C(F)(F)F)cn1` (stereo not shown) [compound 487], the IC50 is, setting by setting: under setting [1], under 100 nM; under setting [2], 64 nM.
In the case of `CN(C)C(=O)CCn1cc(-c2cccc3c2-c2ccccc2C3(O)C(F)(F)F)cn1` (stereo not shown) [compound 488], the IC50 was under 100 nM under setting [1] and 52 nM under setting [2].
Turning to `CN(CCOc1cc(-c2cnn(C)c2)c2c(c1)C(O)(C(F)(F)F)c1ccccc1-2)C(=O)C(C)(C)CO` (stereo not shown) [compound 489], the IC50 is under 100 nM under setting [1] and 22 nM under setting [2].
Take `O=C1COCCN1CCOc1ccc2c(c1)C(O)(C(F)(F)F)c1ccccc1-2` (stereo not shown) [compound 490]: the IC50 is 100 to 1000 nM under setting [1] and 223 nM under setting [2].
